The results in this text go back to article PMC4686731, “Screening of Pharmacologically Active Small Molecule Compounds Identifies Antifungal Agents Against Candida Biofilms” (Frontiers in Microbiology, 2015).

Values after ≈ are worked out from the molar mass of the structure shown. Where a name gives a salt, the structure may show the parent alone. Read-outs that look alike come from different tables or passages of the source. Some results are limits rather than exact numbers.

Test [1] relates to C. albicans strain SC5314. Put plainly: High-throughput screening (HTS) with antifungal susceptibility test, CellTiter-Glo ATP read-out. Format: cell-based, Candida albicans. The note with it: for inhibition at 10 µM: Candida albicans, SC5314, 24 h. As to the method:
(§1) The in vitro susceptibility of well-characterized wild-type C. albicans strain SC5314, which was provided by Prof. N.A.R. Gow (University of Aberdeen, Aberdeen, UK) was tested against 1280 compounds from the Library of Pharmacologically Active Compounds (LOPAC^1280TM, Sigma–Aldrich, USA). The screen was performed with C. albicans SC5314, and hits were further confirmed with the type strains C. dubliniensis MYA 577, C. glabrata ATCC 2001, C. kusei ATCC 6258, C. palapsilosis ATCC 22019, and C. tropicalis ATCC13803.
High-Throughput Screening was conducted using ASTs, according to the standard Clinical and Laboratory Standard Institute (CLSI) method ([Watamoto et al., 2009]). Inocula from 24-h yeast cultures on Sabouraud’s dextrose agar (SDA) (Gibco, UK) were adjusted to a turbidity equivalent to a 0.5 McFarland standard at 520 nm using a spectrophotometer. The suspension was diluted further with RPMI 1640 medium (Gibco, UK) to yield an inoculum concentration of 0.5 × 10^3 to 2.5 × 10^3 cells/mL. C. albicans was incubated with small-molecule compounds (10 μM) from LOPAC^1280TM, which total volume was 150 μL, in 96-well plates at 37°C for 24 h to evaluate the antifungal effects. After incubation, the viability of the fungal cells was determined using the CellTiter-Glo luminescent cell viability kit (Promega, USA). The CellTiter-Glo reagent (150 μL) was added to the medium and incubated for 15 min at room temperature with shaking at 900 rpm. The luminescent signals were detected using a luminometer (GloMax Discover System, Promega, USA). The resulting signal intensity corresponds to ATP amounts and thus to the number of viable microbial cells upon drug exposure ([Stylianou et al., 2014]). In all 96-well plates, 100 and 0% growth controls were included as microbes plus dimethyl sulfoxide (0.1%) and microbes plus amphotericin B (100 μM), respectively. All assays were performed at least as two biological replicates in triplicate. The ATP level of C. albicans cells, which corresponded to the cell metabolic activity and viability, was calculated for each compound using the following equation (Figure 1A).
Percentageinhibition=100 × 1-{(experimental-positivecontrolaverage)/(negativecontrolaverage-positivecontrolaverage)}
Wells were scored as hits if the percentage inhibition was >50%. Hit compounds were evaluated further to assess their antifungal effects.
Background: ATP-based viability assays read luminescence as a measure of living cells.

The test system of test [2] is C. albicans SC5314. Nature of the test: AST broth microdilution, high cell density planktonic mode. Type of test: cell-based, Candida albicans. The following applies: 50% MIC, planktonic mode, 1 × 10^7 cells/mL, 24 h, read-out: Minimum inhibitory concentration (MIC). As to the method:
as §1
(§2) To investigate the antifungal effects of the hit compounds, ASTs were conducted using broth microdilution assays with high cell densities of the planktonic mode, adhesion phase and biofilm mode against Candida strains (C. albicans, C. dubliniensis, C. glabrata, C. kusei, C. palapsilosis, and C. tropicalis). First, high density cell (1 × 10^7 cells/mL) suspensions were added to the RPMI medium containing each hit compound (10–1000 μM) in 96-well plates and incubated at 37°C for 24 h. Next, the 50% minimum inhibitory concentrations (MICs) of high-density Candida planktonic cultures were determined using the CellTiter-Glo luminescent cell viability kit, as described above. The antifungal effects of the hit compounds were also evaluated in the adhesion phase and the biofilm mode, in the same manner as the planktonic mode. Candida biofilms were produced as described previously ([Jin et al., 2004]). In brief, Candida cells were grown on SDA at 37°C for 18 h. A loopful of the yeast culture was then inoculated into yeast nitrogen base (YNB) (Difco, USA) medium supplemented with 50 mM glucose. After overnight broth culture in a rotary shaker at 75 rpm, the cells were washed twice with 20 mL of PBS (pH 7.2, 0.1 M). The yeast cells were re-suspended in YNB supplemented with 100 mM glucose and adjusted to an optical density of 0.38 (1 × 10^7 cells/mL) at 520 nm. This standardized cell suspension was used immediately to form biofilms in the wells of 96-well polystyrene culture plates (Iwaki, Tokyo, Japan). First, the cells were incubated for 90 min at 37°C in a shaker at 75 rpm to allow yeast adherence to the well surface (adhesion phase), before the medium was aspirated and each well was washed once with PBS to remove non-adherent cells. YNB containing 100 mM glucose was then pipetted into each well and the plate was incubated at 37°C in a shaker at 75 rpm for 24 h. Non-adherent cells were removed by pipetting and the biofilms were washed twice with PBS. Following this biofilm growth phase, microscopic examination of the cultures was performed to exclude contamination. These ASTs were repeated on three different occasions.
A general note: In broth dilution the organism is exposed to a series of concentrations in liquid medium.

Test [3] deals with C. albicans SC5314. Nature of the test: AST, adhesion phase. Format: cell-based. The note with it: Candida albicans, SC5314, 1.5 h; adhesion phase (90 min adherence); read-out: Minimum inhibitory concentration (MIC). The protocol: as §1, §2
Test [4] relates to C. albicans SC5314 biofilm. Put plainly: AST, biofilm mode. Type of test: cell-based. The following applies: Candida albicans, SC5314; biofilm mode (24 h biofilm); read-out: Minimum inhibitory concentration (MIC). The protocol:
as §1, §2

Where [5] appears, read: compound 10 μM, 0.5 × 10^3 to 2.5 × 10^3 cells/mL, 37°C, 24 h.

On to `Cc1cc(N)c2ccccc2[n+]1CCCCCCCCCC[n+]1c(C)cc(N)c2ccccc21.O.[Cl-].[Cl-]` [Dequalinium chloride hydrate], for which the “percent inhibition of the metabolic activity (ATP level) of C. albicans” value in test [1] (setting [5]) is given as 71.5%. Regarding `CN[C@@H]1C[C@@H](c2ccc(Cl)c(Cl)c2)c2ccccc21` [Indatraline hydrochloride], the inhibition at 10 µM in test [1] (read-out: percent inhibition of the metabolic activity (ATP level) of C. albicans, compound 10 μM, 0.5 × 10^3 to 2.5 × 10^3 cells/mL, 37°C, 24 h) came out at 85.2%. Take `COc1ccc2c(c[n+](C)c3c4cc5c(cc4ccc23)OCO5)c1OC` [Chelerythrine chloride]: the inhibition at 10 µM in test [1] (compound 10 μM, 0.5 × 10^3 to 2.5 × 10^3 cells/mL, 37°C, 24 h, read-out: percent inhibition of the metabolic activity (ATP level) of C. albicans) came to 82.4%. `CCCCCCCCCCCCCCCC(=O)OC(CC(=O)O)C[N+](C)(C)C.[Cl-]` (racemic) [Palmitoyl-DL-carnitine chloride]: the “percent inhibition of the metabolic activity (ATP level) of C. albicans” value in test [1] (setting [5]) amounted to 76.0%. Turning to `C[C@@H]1[C@H](O)[C@@H](C)/C=C/C=C/C=C/C=C/C=C/C=C/C=C/[C@H](O[C@@H]2O[C@H](C)[C@@H](O)[C@H](N)[C@@H]2O)C[C@@H]2O[C@](O)(C[C@@H](O)C[C@@H](O)[C@H](O)CC[C@@H](O)C[C@@H](O)CC(=O)O[C@H]1C)C[C@H](O)[C@H]2C(=O)O` [AMB, amphotericin B], the MIC with C. albicans SC5314 [2] was 3.9 µM (≈ 3.6 µg/mL); in the test on C. albicans SC5314 [2] (Candida albicans, SC5314, 24 h) it was less than 3.9 µM; in the test with C. albicans SC5314 [3], 15.6 µM (≈ 14.4 µg/mL); in test [4], 62.5 µM (≈ 57.8 µg/mL).
